Test results published in the supplement of paper PMC11208160.

Test: recombinant UMI read abundance after kanamycin selection (control-corrected) (log10(CPM+1)); higher = more efficient recombination; extreme values may be limits of the assay; sequences stand for … in AGTGCAGAGAAAATCGGCCAGTTTTCTCTGCCTGCAGTCCGCATGCCGTGGGACCCCTTGGGTTCTAACCTGTTGCCTAGATTTATGCAGCGGACTGCCTTTCTCCCAAAGTGATAAACCGG…AGGTTGGTTTCACT; site = the 11-nt donor
In short: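 Sequencing read counts were converted to CPM, averaged over two replicates and scaled by control-derived factors. Results are given as log10(CPM+1). The reads covered the donor–target junction of recombinant UMIs from a pooled Escherichia coli screen of donor and donor-binding-loop pairs for the IS621 bridge recombinase.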
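Also: IS621 bridge recombinase in Escherichia coli cells against a fixed T5 target plasmid.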

“GCTACTGCATGGACCGGTTTTCCCGGTAATCCGTATTTGCC (site GCTACTGCTAG)” and “GCTACTGCATGGACCGGTTTTCCCGGTAATCCGTATTTGCC (site GCTACTGCTCG)” are within 0.2 log units of each other in “recombinant UMI read abundance (log10)” value: 0.00694 for the first, 0 for the second.

“GCTACTGCATGGACCGGTTTTCCCGGTAATCCGTATTTGCC (site GCTACTGCTGA)” and “GCTACTGCATGGACCGGTTTTCCCGGTAATCCGTATTTGCC (site GCTACTGCTGC)” are the same in “recombinant UMI read abundance (log10)” value: 0 for the first, 0 for the second.

Compared with “GCTACTGCATGGACCGGTTTTCCCGGTAATCCGTATTTGCC (site GCTACTGCTGG)”, “GCTACTGCATGGACCGGTTTTCCCGGTAATCCGTATTTGCC (site GCTACTGCTGT)” is lower in “recombinant UMI read abundance (log10)” value: 1.11 for the first, 0 for the second.

Going from “GCTACTGCATGGACCGGTTTTCCCGGTAATCCGTATTTGCC (site GCTACTGCTTG)” to “GCTACTGCATGGACCGGTTTTCCCGGTAATCCGTATTTGCC (site GCTACTTCTGG)”, the “recombinant UMI read abundance (log10)” value falls from 0.255 to 0.

“GCTACTGCATGGACCGGTTTTCCCGGTAATCCGTATTTGCC (site GCTAGTGCTGG)” and “GCTACTGCATGGACCGGTTTTCCCGGTAATCCGTATTTGCC (site GCTATTGCTGG)” are the same in “recombinant UMI read abundance (log10)” value: 0 for the first, 0 for the second.

Going from “GCTACTGCATGGACCGGTTTTCCCGGTAATCCGTATTTGCC (site GCTCCTGCTGG)” to “GCTACTGCATGGACCGGTTTTCCCGGTAATCCGTATTTGCC (site GCTGCTGCTGG)”, the “recombinant UMI read abundance (log10)” value rises from 0 to 0.274.

First: GCTACTGCATGGACCGGTTTTCCCGGTAATCCGTATTTGCC (site GCTTCTGCTGG)
Second: GCTACTGCATGGACCGGTTTTCCCGGTAATCCGTATTTGCC (site GGTACTGCTGG)
The “recombinant UMI read abundance (log10)” value of the first is lower: 0.74 for the first, 1.03 for the second.

Compared with “GCTACTGCATGGACCGGTTTTCCCGGTAATCCGTATTTGCC (site GTTACTGCTGG)”, “GCTACTGCATGGACCGGTTTTCCCGGTAATCCGTATTTGCC (site TCTACTGCTGG)” is lower in “recombinant UMI read abundance (log10)” value: 0.815 for the first, 0.424 for the second.

“GCTAGCCCATGGACCGGTTTTCCCGGTAATCCGTATTTGAT (site GCTAGCCCTAT)” and “GCTAGCCCATGGACCGGTTTTCCCGGTAATCCGTATTTGAT (site GCTCGCCCTAT)” are within 0.2 log units of each other in “recombinant UMI read abundance (log10)” value: 0.197 for the first, 0.0134 for the second.

“GCTAGCCCATGGACCGGTTTTCCCGGTAATCCGTATTTGAT (site GCTGGCCCTAT)” and “GCTAGCCCATGGACCGGTTTTCCCGGTAATCCGTATTTGAT (site GCTTGCCCTAT)” are within 0.2 log units of each other in “recombinant UMI read abundance (log10)” value: 0.00566 for the first, 0.00951 for the second.

Going from “GCTCAGGCATGGACCGGTTTTCCCGGTAATCCGTATTTGTA (site GCTCAGGCTTA)” to “GCTCGAGCATGGACCGGTTTTCCCGGTAATCCGTATTTGCA (site GATCGAGCTTG)”, the “recombinant UMI read abundance (log10)” value falls from 1.71 to 0.25.

Going from “GCTCGAGCATGGACCGGTTTTCCCGGTAATCCGTATTTGCA (site GCTCGAGCTTG)” to “GCTCGAGCATGGACCGGTTTTCCCGGTAATCCGTATTTGCA (site GGTCGAGCTTG)”, the “recombinant UMI read abundance (log10)” value falls from 2.67 to 0.679.

Compared with “GCTCGAGCATGGACCGGTTTTCCCGGTAATCCGTATTTGCA (site GTTCGAGCTTG)”, “GCTCGATCATGGACCGGTTTTCCCGGTAATCCGTATTTGCA (site GCTCGATCTTG)” is higher in “recombinant UMI read abundance (log10)” value: 0.655 for the first, 2.07 for the second.

“GCTCGCGCATGGACCGGTTTTCCCGGTAATCCGTATTTGGT (site GCTCGCGCTAC)” and “GCTCGGGCATGGACCGGTTTTCCCGGTAATCCGTATTTGAG (site GCTCGGGCTCT)” are within 0.2 log units of each other in “recombinant UMI read abundance (log10)” value: 0.984 for the first, 0.866 for the second.

First: GCTCTAGCATGGACCGGTTTTCCCGGTAATCCGTATTTGAC (site GCTCTAGCTGT)
Second: GCTCTCGCATGGACCGGTTTTCCCGGTAATCCGTATTTGTT (site GCTCTCGCTAA)
The “recombinant UMI read abundance (log10)” value of the first is higher: 1.67 for the first, 0.534 for the second.

Compared with “GCTGAACCATGGACCGGTTTTCCCGGTAATCCGTATTTGTC (site GCTGAACCTGA)”, “GCTGCGTCATGGACCGGTTTTCCCGGTAATCCGTATTTGGT (site GCTGCGTCTAC)” is higher in “recombinant UMI read abundance (log10)” value: 0 for the first, 0.732 for the second.

“GCTGCTCCATGGACCGGTTTTCCCGGTAATCCGTATTTGCT (site GCTGCTCCTAG)” and “GCTGCTGCATGGACCGGTTTTCCCGGTAATCCGTATTTGCC (site GCTACTGCTGG)” are within 0.2 log units of each other in “recombinant UMI read abundance (log10)” value: 0.276 for the first, 0.315 for the second.

Compared with “GCTGCTGCATGGACCGGTTTTCCCGGTAATCCGTATTTGCC (site GCTCCTGCTGG)”, “GCTGCTGCATGGACCGGTTTTCCCGGTAATCCGTATTTGCC (site GCTGCTGCTGG)” is higher in “recombinant UMI read abundance (log10)” value: 0 for the first, 1.18 for the second.

First: GCTGCTGCATGGACCGGTTTTCCCGGTAATCCGTATTTGCC (site GCTTCTGCTGG)
Second: GCTGCTTCATGGACCGGTTTTCCCGGTAATCCGTATTTGTA (site GCTGCTTCTTA)
The “recombinant UMI read abundance (log10)” value of the first is lower: 0 for the first, 0.981 for the second.

Compared with “GCTGGAGCATGGACCGGTTTTCCCGGTAATCCGTATTTGAG (site GCTGGAGCTCT)”, “GCTGGCGCATGGACCGGTTTTCCCGGTAATCCGTATTTGTA (site GCTGGCGCTTA)” is lower in “recombinant UMI read abundance (log10)” value: 1.41 for the first, 0.982 for the second.

Compared with “GCTGTTACATGGACCGGTTTTCCCGGTAATCCGTATTTGCG (site GCTGTTACTCG)”, “GCTTAGTCATGGACCGGTTTTCCCGGTAATCCGTATTTGTT (site GCTTAGTCTAA)” is higher in “recombinant UMI read abundance (log10)” value: 1.48 for the first, 2.37 for the second.

Compared with “GCTTGCACATGGACCGGTTTTCCCGGTAATCCGTATTTGAT (site GCTTGCACTAT)”, “GCTTGCACATGGACCGGTTTTCCCGGTAATCCGTATTTGAT (site GCTTGCCCTAT)” is lower in “recombinant UMI read abundance (log10)” value: 1.16 for the first, 0.00585 for the second.

Going from “GCTTGCACATGGACCGGTTTTCCCGGTAATCCGTATTTGAT (site GCTTGCGCTAT)” to “GCTTGCACATGGACCGGTTTTCCCGGTAATCCGTATTTGAT (site GCTTGCTCTAT)”, the “recombinant UMI read abundance (log10)” value rises from 0.0165 to 0.396.

“GCTTGCCCATGGACCGGTTTTCCCGGTAATCCGTATTTGCT (site GCTTGCCCTAA)” and “GCTTGCCCATGGACCGGTTTTCCCGGTAATCCGTATTTGCT (site GCTTGCCCTAC)” are within 0.2 log units of each other in “recombinant UMI read abundance (log10)” value: 0.0261 for the first, 0.00338 for the second.

Going from “GCTTGCCCATGGACCGGTTTTCCCGGTAATCCGTATTTGCT (site GCTTGCCCTAG)” to “GCTTGCCCATGGACCGGTTTTCCCGGTAATCCGTATTTGCT (site GCTTGCCCTAT)”, the “recombinant UMI read abundance (log10)” value falls from 0.858 to 0.0783.

Compared with “GCTTGCGCATGGACCGGTTTTCCCGGTAATCCGTATTTGGT (site GCTTGCGCTAC)”, “GCTTGCTCATGGACCGGTTTTCCCGGTAATCCGTATTTGAT (site GCTTGCACTAT)” is lower in “recombinant UMI read abundance (log10)” value: 0.514 for the first, 0.00386 for the second.

“GCTTGCTCATGGACCGGTTTTCCCGGTAATCCGTATTTGAT (site GCTTGCCCTAT)” and “GCTTGCTCATGGACCGGTTTTCCCGGTAATCCGTATTTGAT (site GCTTGCGCTAT)” are within 0.2 log units of each other in “recombinant UMI read abundance (log10)” value: 0 for the first, 0.00706 for the second.

Compared with “GCTTGCTCATGGACCGGTTTTCCCGGTAATCCGTATTTGAT (site GCTTGCTCTAT)”, “GCTTGTCCATGGACCGGTTTTCCCGGTAATCCGTATTTGAT (site GCTTGACCTAT)” is lower in “recombinant UMI read abundance (log10)” value: 1.46 for the first, 0.00264 for the second.

“GCTTGTCCATGGACCGGTTTTCCCGGTAATCCGTATTTGAT (site GCTTGCCCTAT)” and “GCTTGTCCATGGACCGGTTTTCCCGGTAATCCGTATTTGAT (site GCTTGGCCTAT)” are within 0.2 log units of each other in “recombinant UMI read abundance (log10)” value: 0.021 for the first, 0 for the second.

Going from “GCTTGTCCATGGACCGGTTTTCCCGGTAATCCGTATTTGAT (site GCTTGTCCTAT)” to “GCTTGTTCATGGACCGGTTTTCCCGGTAATCCGTATTTGAA (site GCTTGTTCTTT)”, the “recombinant UMI read abundance (log10)” value rises from 0 to 0.489.

First: GCTTGTTCATGGACCGGTTTTCCCGGTAATCCGTATTTGCT (site GCTTGTTCTAG)
Second: GGAAACCCATGGACCGGTTTTCCCGGTAATCCGTATTTGCC (site GGAAACCCTGG)
The “recombinant UMI read abundance (log10)” value of the first is higher: 1.84 for the first, 0 for the second.

Compared with “GGAACGACATGGACCGGTTTTCCCGGTAATCCGTATTTGAT (site GGAACGACTAT)”, “GGAATGCCATGGACCGGTTTTCCCGGTAATCCGTATTTGCA (site GGAATGCCTTG)” is lower in “recombinant UMI read abundance (log10)” value: 1.43 for the first, 0 for the second.

Compared with “GGACAGCCATGGACCGGTTTTCCCGGTAATCCGTATTTGCA (site GGACAGCCTTG)”, “GGACCATCATGGACCGGTTTTCCCGGTAATCCGTATTTGTC (site GGACCATCTGA)” is higher in “recombinant UMI read abundance (log10)” value: 1.07 for the first, 2.27 for the second.

“GGACCGGCATGGACCGGTTTTCCCGGTAATCCGTATTTGGG (site GGACCGGCTCC)” and “GGACTCACATGGACCGGTTTTCCCGGTAATCCGTATTTGTG (site GGACTCACTCA)” are within 0.2 log units of each other in “recombinant UMI read abundance (log10)” value: 0.0163 for the first, 0.00312 for the second.
